Data: BindingDB's records for PubMed 1346637 (Mayo Clinic, 1992)

What was measured:
[1] = molecular target: T1, Muscarinic acetylcholine receptor M5 (Homo sapiens, UniProt P08912)
T1 sequence (P08912 whole entry): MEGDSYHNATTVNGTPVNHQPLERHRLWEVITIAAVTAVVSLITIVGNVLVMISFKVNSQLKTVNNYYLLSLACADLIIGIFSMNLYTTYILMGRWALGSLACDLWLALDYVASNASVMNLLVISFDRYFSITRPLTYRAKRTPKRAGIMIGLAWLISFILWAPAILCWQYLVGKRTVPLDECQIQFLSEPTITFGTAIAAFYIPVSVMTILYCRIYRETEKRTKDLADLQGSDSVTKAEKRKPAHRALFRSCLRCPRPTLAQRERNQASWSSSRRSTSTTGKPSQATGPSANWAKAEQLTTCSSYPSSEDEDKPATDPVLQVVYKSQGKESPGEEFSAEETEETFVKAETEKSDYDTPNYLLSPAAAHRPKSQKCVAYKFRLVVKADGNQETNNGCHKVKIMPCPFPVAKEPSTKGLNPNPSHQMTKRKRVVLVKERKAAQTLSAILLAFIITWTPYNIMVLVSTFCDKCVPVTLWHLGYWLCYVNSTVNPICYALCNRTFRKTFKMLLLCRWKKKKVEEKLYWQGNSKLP

[2] = molecular target: T2, Muscarinic acetylcholine receptor M2 (Homo sapiens, UniProt P08172)
T2 sequence (P08172 whole entry): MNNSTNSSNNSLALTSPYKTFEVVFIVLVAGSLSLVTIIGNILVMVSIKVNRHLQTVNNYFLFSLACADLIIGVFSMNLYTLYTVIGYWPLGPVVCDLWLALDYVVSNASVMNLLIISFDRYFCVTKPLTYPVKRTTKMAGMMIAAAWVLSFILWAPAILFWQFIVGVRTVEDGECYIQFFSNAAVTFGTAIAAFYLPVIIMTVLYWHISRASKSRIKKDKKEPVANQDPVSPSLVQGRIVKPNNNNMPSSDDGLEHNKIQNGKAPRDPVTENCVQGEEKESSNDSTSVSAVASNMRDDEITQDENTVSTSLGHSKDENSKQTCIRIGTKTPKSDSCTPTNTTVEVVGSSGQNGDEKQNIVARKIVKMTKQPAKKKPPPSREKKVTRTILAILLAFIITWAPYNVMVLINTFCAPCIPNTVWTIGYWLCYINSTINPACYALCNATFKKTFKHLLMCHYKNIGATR

[3] = molecular target: T3, Muscarinic acetylcholine receptor M4 (Homo sapiens, UniProt P08173)
T3 sequence (P08173 whole entry): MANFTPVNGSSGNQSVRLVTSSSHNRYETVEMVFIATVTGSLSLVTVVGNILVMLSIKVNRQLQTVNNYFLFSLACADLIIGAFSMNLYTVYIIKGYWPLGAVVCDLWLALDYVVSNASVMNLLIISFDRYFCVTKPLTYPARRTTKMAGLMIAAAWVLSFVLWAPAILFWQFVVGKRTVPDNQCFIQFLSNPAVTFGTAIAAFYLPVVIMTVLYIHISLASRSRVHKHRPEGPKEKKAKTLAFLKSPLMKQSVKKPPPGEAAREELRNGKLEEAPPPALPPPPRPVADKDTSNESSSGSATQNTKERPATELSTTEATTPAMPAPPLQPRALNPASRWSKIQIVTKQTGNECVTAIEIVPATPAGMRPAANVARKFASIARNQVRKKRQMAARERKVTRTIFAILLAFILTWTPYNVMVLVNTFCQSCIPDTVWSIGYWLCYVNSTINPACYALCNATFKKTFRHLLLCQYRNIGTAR

| Structure (SMILES) | Ki [1] [nM] | Ki [2] [nM] | Ki [3] [nM] |
| --- | --- | --- | --- |
| O=C1CC2(CCCC2)CC(=O)N1CCCCN1CCN(c2nsc3ccccc23)CC1 [TIOSPERONE] | 3900 | 180 | 480 |
| OC(CCN1CCCCC1)(c1ccccc1)C1CC2C=CC1C2 (centres undefined) [1-(bicyclo[2.2.1]hept-5-en-2-yl)-1-phenyl-3-(piperidin-1-yl)propan-1-ol] | 6.3 |  | 2.4 |
| CN1CCN(C2=Nc3ccccc3Oc3ccc(Cl)cc32)CC1 [13-chloro-10-(4-methylpiperazin-1-yl)-2-oxa-9-azatricyclo[9.4.0.0^{3,8}]pentadeca-1(11),3,5,7,9,12,14-heptaene] | 241 |  | 300 |
| CC1CCN(CCCC(=O)c2ccc(F)cc2)CC1 [CAS_3575-80-2] | > 10000 | 2400 | 4400 |
| CN1CCCCC1CCN1c2ccccc2Sc2ccc([S+](C)[O-])cc21 (centres undefined) | 60 | 15 | 19 |
| CN1CCN(C2=Nc3cscc3C(=CC#N)c3cscc32)CC1 [NSC_3086153] | 660 | 62 | 430 |
| CN(C)CCOC1=Cc2ccccc2Sc2ccc(Cl)cc21 [2-Chloro-11-(2-(dimethylamino)ethoxy)dibenzo(b,f)thiepin] | 260 |  | 77 |
| CN(C)CC/C=C1\c2ccccc2Sc2ccc(Cl)cc21 | 25 |  | 18 |
| CN1CCN(CC/C=C2/c3ccccc3Sc3ccc(S(=O)(=O)N(C)C)cc32)CC1 [MLS000028463] | 4310 | 2100 | 1540 |
| CN1CCN(C2=Nc3cc(F)ccc3Cc3ccccc32)CC1 | 17 | 71 | 14 |
| CN1CCN(C2=Cc3cc(Cl)ccc3C(=CC#N)c3ccccc32)CC1 [CAS_79781-95-6] | 1100 | 470 | 1000 |
| OC(CCN1CCCC1)(c1ccccc1)C1CCCCC1 (centres undefined) [1-Cyclohexyl-1-phenyl-3-pyrrolidin-1-yl-propan-1-ol] | 24 |  | 7 |
| O=C(CCCN1CCC(O)(c2ccc(Br)cc2)CC1)c1ccc(F)cc1 [BROMPERIDOL] | 4800 | 1800 | 1700 |
